Patent EP3875086A1, “DUAL-INHIBITORS OF CELLULAR NECROPTOSIS AND FERROPTOSIS FOR USE IN THE TREATMENT OF ORGAN TRANSPLANT PATIENTS” (Technische Universität Dresden, priority 2020, dated 2021)
Entries after “also recorded” stand apart in the source; their conditions may differ.

Columns and labels:
[1] = Murine kidney ischemia-reperfusion injury model; assay type: in vivo, C57BL/6 mice; conditions: mice, 30 min ischemia
Protocol: • Figure 1: Overview of chemical structures of different necrostatins. Structural differences between Nec-1f in comparison to known necroptosis inhibitors Nec-1 and Nec-1s. Highlighted are the main residues involved in facilitating protection from necroptosis and/or ferroptosis. • Figure 2: Biotinylation of Nec-1. Simplified scheme of linking the target molecule Nec-1 to a biotin anker. […] (A, B) Inhibition of cell death by Nec-1f in NIH3T3 cells was assessed by flow cytometry. Cells were treated with the ferroptosis inducer RSL-3 (1.13 µM) for 6 h with or without simultaneous substitution of necrostatins. The percentage of cells positive for annexinV and 7-AAD was recorded. (C, D) Viability of NIH3T3 cells after induction of ferroptosis. Cells were treated with 1.13 µM RSL-3 for 6 h and collected for flow cytometry. […] (A, B) Inhibition of necroptotic cell death by Nec-1f in NIH3T3 cells was assessed by flow cytometry. Cells were treated with the TNF, Birinapant and z-VAD-fmk (TSZ) to induce necroptosis. After 18 h necroptosis induction with or without simultaneous substitution of necrostatins the cells were harvested and stained for flow cytometry. The percentage of cells positive for annexinV and 7-AAD was recorded. (C, D) Viability of NIH3T3 cells 18h after induction of necroptosis via TSZ treatment. […] Animals were subjected to 30 min of ischemia after i.p. injection of 0.6 mg Nec-1f per kg bodyweight or the respective vehicle control in PBS. (A, B) After 48h mice were sacrificed and serum creatinine levels and serum urea levels were measured as markers of renal function and intoxication. Error bars represent standard deviation. • Figure 6: Synthesis of 5-[(7-Chloro-1H-indol-3-yl)methyl]-3-methyl-2-thioxo-imidazolidin-4-one (1-3; Nec-1f) according to example 2. • Figure 7: Synthesis of 5-[(3aS,4R,6aR)-2-Oxo-1,3,3a,4,6,6a-hexahydrothieno[3,4-d]imidazol-4-yl]-N-[[1-[2-[2-[2-[[3-[(1-methyl-5-oxo-2-thioxo-imidazolidin-4-yl)methyl]-1H-indol-7-yl]oxy]ethoxy]ethoxy]ethyl]triazol-4-yl]methyl]pentanamide (2-8; biotinylated Nec-1) according to example 3. […]

NIH3T3 cells [2] = assay: Inhibition of RSL-3-induced ferroptosis, flow cytometry (annexinV / 7-AAD); assay type: cell-based, Murine; conditions: RSL-3 1.13 µM for 6 h, with simultaneous necrostatin
Protocol: (§1) • Figure 1: Overview of chemical structures of different necrostatins. Structural differences between Nec-1f in comparison to known necroptosis inhibitors Nec-1 and Nec-1s. Highlighted are the main residues involved in facilitating protection from necroptosis and/or ferroptosis. • Figure 2: Biotinylation of Nec-1. Simplified scheme of linking the target molecule Nec-1 to a biotin anker. […] (A, B) Inhibition of cell death by Nec-1f in NIH3T3 cells was assessed by flow cytometry. Cells were treated with the ferroptosis inducer RSL-3 (1.13 µM) for 6 h with or without simultaneous substitution of necrostatins. The percentage of cells positive for annexinV and 7-AAD was recorded. (C, D) Viability of NIH3T3 cells after induction of ferroptosis. Cells were treated with 1.13 µM RSL-3 for 6 h and collected for flow cytometry. […] (A, B) Inhibition of necroptotic cell death by Nec-1f in NIH3T3 cells was assessed by flow cytometry. […] The percentage of cells positive for annexinV and 7-AAD was recorded. […] (A, B) After 48h mice were sacrificed and serum creatinine levels and serum urea levels were measured as markers of renal function and intoxication. […]
(§2) Phosphatidylserine exposure to the outer cell membrane of apoptotic cells or at the inner plasma membrane of necrotic cells and incorporation of 7-AAD into necrotic cells were quantified by fluorescence-activated cell sorting (FACS) analysis. […]

NIH3T3 cells [3] = assay: Inhibition of TNF/Birinapant/zVAD (TSZ)-induced necroptosis, flow cytometry (annexinV / 7-AAD); assay type: cell-based, Murine; conditions: TNF + Birinapant + z-VAD-fmk (TSZ), 18 h
Protocol: as §1, §2

[4] = 0.6 mg Nec-1f per kg bodyweight i.p. 15 min before ischemia, 48 h after reperfusion

CN1C(=O)C(Cc2c[nH]c3c(Cl)cccc23)NC1=S (centres unmarked) [Nec-1f, 5-[(7-Chloro-1H-indol-3-yl)methyl]-3-methyl-2-thioxo-imidazolidin-4-one]
protection in animal model of renal ischemia-reperfusion injury ([1]; 0.6 mg Nec-1f per kg bodyweight i.p.): protective | serum creatinine levels (marker of renal function) [1, 4]: reversed | serum urea levels (intoxication marker) [1, 4]: reversed | assays used to detect ferroptosis (cell death / viability, annexinV and 7-AAD) (NIH3T3 cells [2]): protects cells from undergoing ferroptosis; also recorded: reversed | assays used to detect necroptosis (cell death / viability, annexinV and 7-AAD) (NIH3T3 cells [3]): protects cells from undergoing necroptosis; also recorded: reversed
